In ChEMBL document CHEMBL5725286, “Polyfluorinated compounds acting as bruton tyrosine kinase inhibitors” (2017) one finds IC50 data, which are given here for one compound.

This experiment concerns the target Tyrosine-protein kinase BTK (Homo sapiens, UniProt Q06187). Put plainly: HTRF Assay: The enzyme reaction mixture of BTK wild type standard HTRF assay contained 1 nM BTK wild type, 1 μM biotin-TK1 peptide, and 30 μM ATP in a buffer. The enzyme reaction were carried out at room temperature for 60 minutes. 5 μl of 0.2 M EDTA were added to quench the reaction and then […] were added at final concentrations of 2 nM antibody and 62.5 nM XL665. The plates were incubated at room temperature for 60 minutes and then read in the Envision plate reader. Background: In TR-FRET formats the signal depends on donor and acceptor labels being close together.

pIC50: −log10 of the molar value.

Tyrosine-protein kinase BTK, sequence (Q06187 whole entry): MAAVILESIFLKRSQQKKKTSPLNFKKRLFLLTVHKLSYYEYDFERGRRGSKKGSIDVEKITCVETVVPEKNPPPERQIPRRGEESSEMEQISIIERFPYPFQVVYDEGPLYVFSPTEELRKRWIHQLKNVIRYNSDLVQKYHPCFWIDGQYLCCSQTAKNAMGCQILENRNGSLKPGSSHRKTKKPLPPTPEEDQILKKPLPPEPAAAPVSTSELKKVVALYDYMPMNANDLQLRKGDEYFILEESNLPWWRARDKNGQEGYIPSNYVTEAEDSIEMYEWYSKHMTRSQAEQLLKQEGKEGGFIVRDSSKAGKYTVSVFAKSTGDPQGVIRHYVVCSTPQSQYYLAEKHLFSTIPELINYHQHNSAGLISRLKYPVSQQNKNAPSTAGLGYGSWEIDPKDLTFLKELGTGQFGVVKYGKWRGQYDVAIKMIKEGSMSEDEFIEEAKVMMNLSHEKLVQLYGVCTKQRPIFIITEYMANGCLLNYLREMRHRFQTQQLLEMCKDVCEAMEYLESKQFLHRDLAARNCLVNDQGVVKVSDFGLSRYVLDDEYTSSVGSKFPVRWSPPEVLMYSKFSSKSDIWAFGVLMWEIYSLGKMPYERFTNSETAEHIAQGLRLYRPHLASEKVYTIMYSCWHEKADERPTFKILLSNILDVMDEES

For `Nc1ncnc2c1c(-c1ccc(Oc3c(F)c(F)cc(F)c3F)cc1F)nn2C1CCC(NC(=O)CSSCC(=O)NC2CCC(n3nc(-c4ccc(Oc5c(F)c(F)cc(F)c5F)cc4F)c4c(N)ncnc43)CC2)CC1` (stereo unspecified), the pIC50 (commonly −log10 of the IC50, conventionally taken in molar units) was 7.66.
